Source: US20010044445A1, “AZOLE INHIBITORS OF CYTOKINE PRODUCTION” (priority 1999, published 2001)

How the values were obtained:
[1] = test system: Human peripheral blood mononuclear cells; experiment: Human Concanavalin-A Proliferation Assay (Con HU Assay); type: cell-based; conditions: Homo sapiens, PBMC, concanavalin-A stimulated human PBMC; for inhibition at 100 µM / inhibition at 10 µM / inhibition at 1 µM: 72 h, 3 days, read-out: % Inhibition of proliferation (at concentrations of 1,10, or 100 μm); for inhibition at 100 µM: concentration 100 μm (in parentheses in the cell); for IC50: tritiated thymidine; for inhibition at 10 µM: concentration 10 μm (in parentheses in the cell); for inhibition at 1 µM: concentration 1 μm (in parentheses in the cell)
Outline: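 Proliferation read as tritiated thymidine uptake (0.5 μCi/well, 6 h pulse on day 3) in human PBMC cultured 3 days with 2.5 μg/ml (final) concanavalin-A. Cells, 50,000 per well in supplemented RPMI 1640 with 10% FBS, received compound 15 min before mitogen.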

Row | melting point [°C] | Structure (SMILES) | inhibition at 100 µM [1] [%] | IC50 [1] [nM] | inhibition at 10 µM [1] [%] | inhibition at 1 µM [1] [%]
1 | 182 to 184 | [N-]=[N+]=Nc1ccc(C(=O)Nc2ccc(-n3nc(C(F)(F)F)cc3C(F)(F)F)cc2)cc1 [Example 60, 4-Azido-N-[4-[3,5-bis(trifluoromethyl)-1H-pyrazol-1-yl]phenyl]benzamide] | 100 | 296 |  | 
2 | 122 to 123 | CSCCC(=O)Nc1ccc(-n2nc(C(F)(F)F)cc2C(F)(F)F)cc1 [Example 65, N-[4-[3,5-bis(trifluoromethyl)-1H-pyrazol-1-yl]phenyl]-3-(methylthio)propanamide] | 98 | 1820 |  | 
3 | 169 to 171 | N#Cc1ccc(C(=O)Nc2ccc(-n3nc(C(F)(F)F)cc3C(F)(F)F)cc2)cc1 [Example 67, N-[4-[3,5-bis(trifluoromethyl)-1H-pyrazol-1-yl]phenyl]-4-cyanobenzamide] | 100 | 254 |  | 
4 | 176 to 178 | O=C(Nc1ccc(-n2nc(C(F)(F)F)cc2C(F)(F)F)cc1)C1CC1c1ccccc1 (centres unmarked) [Example 68, N-[4-[3,5-bis(trifluoromethyl)-1H-pyrazol-1-yl]phenyl]-2-phenylcyclopropanecarboxamide] | 99 | 2440 |  | 
5 | 196 to 198 | O=C(Nc1ccc(-n2nc(C(F)(F)F)cc2C(F)(F)F)cc1)c1ccc(I)cc1 [Example 69, N-[4-[3,5-bis(trifluoromethyl)-1H-pyrazol-1-yl]phenyl]-4-iodobenzamide] | 98 | 506 |  | 
6 | 144 to 145 | O=C(CCCl)Nc1ccc(-n2nc(C(F)(F)F)cc2C(F)(F)F)cc1 [Example 70, N-[4-[3,5-bis(trifluoromethyl)-1H-pyrazol-1-yl]phenyl]-3-chloropropanamide] | 100 | 913 |  | 
7 | 205 to 207 | COc1ccc(C(=O)Nc2ccc(-n3nc(C(F)(F)F)cc3C(F)(F)F)cc2)cc1 [Example 71, N-[4-[3,5-bis(trifluoromethyl)-1H-pyrazol-1-yl]phenyl]-4-methoxybenzamide] |  | 544 | 87 | 
8 | > 245 | O=C(Nc1ccc(-n2nc(C(F)(F)F)cc2C(F)(F)F)cc1)c1ccc(O)cc1 [Example 73, N-[4-[3,5-bis(trifluoromethyl)-1H-pyrazol-1-yl]phenyl]-4-hydroxybenzamide] |  | 388 | 93 | 
9 | 153 to 155 | CCCCCCOc1ccc(C(=O)Nc2ccc(-n3nc(C(F)(F)F)cc3C(F)(F)F)cc2)cc1 [Example 74, N-[4-[3,5-bis(trifluoromethyl)-1H-pyrazol-1-yl]phenyl]-4-(hexyloxy)benzamide] | 83 | 22800 |  | 
10 | 137 to 139 | Cc1cccc(C(=O)Nc2ccc(-n3nc(C(F)(F)F)cc3C(F)(F)F)cc2)c1 [Example 75, N-[4-[3,5-bis(trifluoromethyl)-1H-pyrazol-1-yl]phenyl]-3-methylbenzamide] | 100 | 368 |  | 
11 | 159 to 161 | CC(=O)Oc1ccccc1C(=O)Nc1ccc(-n2nc(C(F)(F)F)cc2C(F)(F)F)cc1 [Example 76, 2-(Acetyloxy)-N-[4-[3,5-bis(trifluoromethyl)-1H-pyrazol-1-yl]phenyl]benzamide] | 100 | 3170 |  | 
12 | 203 to 205 | Cc1cc(C)c(C(=O)Nc2ccc(-n3nc(C(F)(F)F)cc3C(F)(F)F)cc2)c(C)c1 [Example 78, N-[4-[3,5-bis(trifluoromethyl)-1H-pyrazol-1-yl]phenyl]-2,4,6-trimethylbenzamide] | 95 | 607 |  | 
13 | 207 to 209 | O=C(Nc1ccc(-n2nc(C(F)(F)F)cc2C(F)(F)F)cc1)Nc1ccc(Cl)c([N+](=O)[O-])c1 [Example 79, N-[4-[3,5-bis(trifluoromethyl)-1H-pyrazol-1-yl]phenyl]-N′-(4-chloro-3-nitrophenyl)urea] |  |  |  | 9
14 | 240 | FC(F)(F)c1cc(C(F)(F)F)n(-c2ccc(NCc3ccccc3Cl)cc2)n1 [Example 82, N-[4-[3,5-bis(trifluoromethyl)-1H-pyrazol-1-yl]phenyl]-2-chlorobenzenemethanamine] | 100 | 468 |  | 
15 | 214 to 216 | Cn1ncc(C(=O)Nc2ccc(-n3nc(C(F)(F)F)cc3C(F)(F)F)cc2)c1[N+](=O)[O-] [Example 83, N-[4-[3,5-bis(trifluoromethyl)-1H-pyrazol-1-yl]phenyl]-1-methyl-5-nitro-1H-pyrazole-4-carboxamide] |  | 71 | 99 | 
16 | 92 to 94 | Fc1ccc(CNc2ccc(-n3nc(C(F)(F)F)cc3C(F)(F)F)cc2)cc1 [Example 84, N-[4-[3,5-bis(trifluoromethyl)-1H-pyrazol-1-yl]phenyl]-4-fluorobenzenemethanamine] |  | 712 |  | 76
17 | 205 to 207 | O=C(Nc1ccc(-n2nc(C(F)(F)F)cc2C(F)(F)F)cc1)c1ccc(Br)cc1 [Example 85, N-[4-[3,5-bis(trifluoromethyl)-1H-pyrazol-1-yl]phenyl]-4-bromobenzamide] | 93 | 275 |  | 
18 | 180 to 181 | CN(C)c1cccc(C(=O)Nc2ccc(-n3nc(C(F)(F)F)cc3C(F)(F)F)cc2)c1 [Example 88, N-[4-[3,5-bis(trifluoromethyl)-1H-pyrazol-1-yl]phenyl]-3-(dimethylamino)benzamide] |  |  |  | 29
19 | 170 to 172 | O=C(Nc1ccc(-n2nc(C(F)(F)F)cc2C(F)(F)F)cc1)c1ccc(C(F)(F)F)cc1 [Example 89, N-[4-[3,5-bis(trifluoromethyl)-1H-pyrazol-1-yl]phenyl]-4-(trifluoromethyl)benzamide] | 99 | 1230 |  | 
20 | 184 to 186 | O=C(Nc1ccc(-n2nc(C(F)(F)F)cc2C(F)(F)F)cc1)c1ccc(F)cc1 [Example 90, N-[4-[3,5-bis(trifluoromethyl)-1H-pyrazol-1-yl]phenyl]-4-fluorobenzamide] | 98 | 144 |  | 
21 | 155 to 157 | O=C(Nc1ccc(-n2nc(C(F)(F)F)cc2C(F)(F)F)cc1)c1ccccc1Cl [Example 91, N-[4-[3,5-bis(trifluoromethyl)-1H-pyrazol-1-yl]phenyl]-2-chlorobenzamide] | 99 | 138 |  | 
22 | 177 to 178 | O=C(Nc1ccc(-n2nc(C(F)(F)F)cc2C(F)(F)F)cc1)c1ccccc1 [Example 92, N-[4-[3,5-bis(trifluoromethyl)-1H-pyrazol-1-yl]phenyl]benzamide] | 92 | 673 |  | 
23 | 185 to 188 | O=C(Nc1ccc(-n2nc(C(F)(F)F)cc2C(F)(F)F)cc1)c1ccc([N+](=O)[O-])cc1 [Example 93, N-[4-[3,5-bis(trifluoromethyl)-1H-pyrazol-1-yl]phenyl]-4-nitrobenzamide] | 100 | 365 |  | 
24 | 102 to 103 | Fc1ccc(NCc2ccc(-n3nc(C(F)(F)F)cc3C(F)(F)F)cc2)cc1 [Example 94, 4-[3,5-Bis(trifluoromethyl)-1H-pyrazol-1-yl]-N-(4-fluorophenyl)benzenemethanamine] |  |  | 3 | 
25 | 165 to 167 | Cc1ccccc1C(=O)Nc1ccc(-n2nc(C(F)(F)F)cc2C(F)(F)F)cc1 [Example 96, N-[4-[3,5-bis(trifluoromethyl)-1H-pyrazol-1-yl]phenyl]-2-methylbenzamide] | 99 | 338 |  | 
26 | 225 to 226 | Cc1ccc(C(=O)Nc2ccc(-n3nc(C(F)(F)F)cc3C(F)(F)F)cc2)cc1 [Example 100, N-[4-[3,5-bis (trifluoromethyl)-1H-pyrazol-1-yl]phenyl]-4-methylbenzamide] | 75 | 2150 |  | 
27 | 143 to 145 | O=C(Nc1ccc(-n2nc(C(F)(F)F)cc2C(F)(F)F)cc1)c1cccc(C(F)(F)F)c1 [Example 101, N-[4-[3,5-bis(trifluoromethyl)-1H-pyrazol-1-yl]phenyl]-3-(trifluoromethyl)benzamide] | 100 | 2230 |  | 
28 | 150 to 152 | CC(C)=CC(=O)Nc1ccc(-n2nc(C(F)(F)F)cc2C(F)(F)F)cc1 [Example 102, N-[4-[3,5-bis(trifluoromethyl)-1H-pyrazol-1-yl]phenyl]-3-methyl-2-butenamide] | 100 | 503 |  | 
29 | 173 to 175 | O=C(Nc1ccc(-n2nc(C(F)(F)F)cc2C(F)(F)F)cc1)c1ccccc1O [Example 103, N-[4-[3,5-bis(trifluoromethyl)-1H-pyrazol-1-yl]phenyl]-2-hydroxybenzamide] |  |  |  | 14
30 | 221 to 223 | O=C(Nc1ccc(-n2nc(C(F)(F)F)cc2C(F)(F)F)cc1)c1cccc(O)c1 [Example 104, N-[4-[3,5-bis(trifluoromethyl)-1H-pyrazol-1-yl]phenyl]-3-hydroxybenzamide] | 99 | 394 |  | 
